According to ChEMBL document CHEMBL3045557, “A new benzil derivative from Derris scandens: Structure-insecticidal activity study” (2010):
Active and inactive are the calls of the source. The rule behind the calls is not given here.

Tests used:
Achaea janata [1] = assay: Insecticidal activity against Achaea janata assessed as adult deformity at 2 ug/larva administered through topical application; type: functional
Achaea janata [2] = assay: Insecticidal activity against Achaea janata assessed as adult emergence at 2 ug/larva administered through topical application (reference value: 98.8 +/- 0.5 %); type: functional
Achaea janata [3] = assay: Toxicity against Achaea janata after 24 hr by leaf disk method; type: functional
Achaea janata [4] = assay: Antifeedant activity against Achaea janata at 2 ug/cm2 by conventional no-choice disk method; type: functional, organism-based
Achaea janata [5] = assay: Toxicity against Achaea janata at 10 ug/cm2 after 24 hr by leaf disk method; type: functional
Achaea janata [6] = assay: Insecticidal activity against Achaea janata assessed as pupal weight at 2 ug/larva administered through topical application (reference value: 696.4 +/- 2.6 mg); type: functional
Achaea janata [7] = assay: Antifeedant activity against Achaea janata by conventional no-choice disk method; type: functional
Achaea janata [8] = assay: Insecticidal activity against Achaea janata assessed as pupal mortality at 4 ug/larva administered through topical application; type: functional
Achaea janata [9] = assay: Insecticidal activity against Achaea janata assessed as pupal duration at 4 ug/larva administered through topical application (reference value: 10.3 +/- 0.1 days); type: functional
Achaea janata [10] = assay: Insecticidal activity against Achaea janata assessed as pupal mortality at 2 ug/larva administered through topical application; type: functional
Achaea janata [11] = assay: Insecticidal activity against Achaea janata assessed as larval duration at 4 ug/larva administered through topical application (reference value: 7.3 +/- 0.1 days); type: functional
Achaea janata [12] = assay: Antifeedant activity against Achaea janata at 1 ug/cm2 by conventional no-choice disk method; type: functional, organism-based
Achaea janata [13] = assay: Insecticidal activity against Achaea janata assessed as pupal weight at 4 ug/larva administered through topical application (reference value: 696.4 +/- 2.6 mg); type: functional
Achaea janata [14] = assay: Insecticidal activity against Achaea janata assessed as pupal duration at 2 ug/larva administered through topical application (reference value: 10.3 +/- 0.1 days); type: functional
Achaea janata [15] = assay: Insecticidal activity against Achaea janata assessed as larval mortality at 4 ug/larva administered through topical application; type: functional
Achaea janata [16] = assay: Insecticidal activity against Achaea janata assessed as adult deformity at 4 ug/larva administered through topical application; type: functional
Achaea janata [17] = assay: Antifeedant activity against Achaea janata at 10 ug/cm2 by conventional no-choice disk method; type: functional
Achaea janata [18] = assay: Insecticidal activity against Achaea janata assessed as adult emergence at 4 ug/larva administered through topical application (reference value: 98.8 +/- 0.5 %); type: functional
Achaea janata [19] = assay: Insecticidal activity against Achaea janata assessed as larval mortality at 2 ug/larva administered through topical application; type: functional
Achaea janata [20] = assay: Insecticidal activity against Achaea janata assessed as larval duration at 2 ug/larva administered through topical application (reference value: 7.3 +/- 0.1 days); type: functional
Achaea janata [21] = assay: Antifeedant activity against Achaea janata at 1.25 ug/cm2 by conventional no-choice disk method; type: functional
Achaea janata [22] = assay: Insecticidal activity against Achaea janata assessed as larval mortality at 0.2 ug/larva administered through topical application; type: functional
Achaea janata [23] = assay: Toxicity against Achaea janata at 1.25 ug/cm2 after 24 hr by leaf disk method; type: functional

SMILES | Activity (Achaea janata [1]) [%] | Activity (Achaea janata [2]) [%] | LD50 (Achaea janata [3]) | AFI (Achaea janata [4]) | Activity (Achaea janata [5]) [%] | Activity (Achaea janata [6]) [mg] | ED50 (Achaea janata [7]) | mortality (Achaea janata [8]) [%] | Time (Achaea janata [9]) [days] | mortality (Achaea janata [10]) [%] | Time (Achaea janata [11]) [days] | AFI (Achaea janata [12]) | Activity (Achaea janata [13]) [mg] | Time (Achaea janata [14]) [days] | mortality (Achaea janata [15]) [%] | Activity (Achaea janata [16]) [%] | AFI (Achaea janata [17]) [%] | Activity (Achaea janata [18]) [%] | mortality (Achaea janata [19]) [%] | Time (Achaea janata [20]) [days] | further results
COc1c(CC=C(C)C)c2c(c(O)c1C(=O)C(=O)c1ccc(O)cc1)C=CC(C)(C)O2 | 16.2 | 34.5 | 3.56 microg/cm2 | inactive | 100 | 524.4 | 3.31 microg/cm2 | 31.6 | 13.5 | 20 | 8.5 | inactive | 515.4 | 13 | 39.3 | 19 | 96.8 | 6.7 | 15.1 | 7.8 | –
C/C=C(\C)C(=O)O[C@H]1C[C@@H](OC(C)=O)[C@@]2(C(=O)OC)CO[C@H]3[C@@H](O)[C@@](C)([C@]45O[C@@]4(C)[C@@H]4C[C@H]5O[C@@H]5OC=C[C@@]54O)[C@H]4[C@]1(CO[C@]4(O)C(=O)OC)[C@@H]32 [AZADIRACHTIN A] | 0 | 98.8 | 0.67 microg/cm2 | – | – | 696.4 | 0.72 microg/cm2 | 0 | 10.3 | 0 | – | – | 696.4 | 10.3 | – | 0 | – | 98.8 | – | – | AFI (Achaea janata [21]): 100%; mortality (Achaea janata [22]): 100%; Activity (Achaea janata [23]): 100%
COc1c2c(c(CC=C(C)C)c(O)c1C(=O)C(=O)c1ccc(O)cc1)OC(C)(C)C=C2 [Derrisdione A] | 19.5 | 35.4 | inactive | inactive | 18.2 | 592.6 | 7.18 microg/cm2 | 36.2 | 12.5 | 29.8 | 10.5 | inactive | 597.8 | 10.9 | 0 | 21.1 | 58.6 | 29.8 | 0 | 9.3 | –
O=c1c(-c2ccc(O)cc2)coc2cc(O)cc(O)c12 [GENISTEIN] | 10.6 | 27 | 3.29 microg/cm2 | inactive | 100 | 518 | 3.22 microg/cm2 | 22.5 | – | 17.2 | 10.3 | inactive | 532 | 13.1 | 48.6 | 11.8 | 97.7 | 7.7 | 31 | 7.8 | –
CC(C)=CCc1c2c(c(O)c3c(=O)cc(-c4ccc(O)cc4)oc13)C=CC(C)(C)O2 [LAXIFOLIN] | 0 | 59.6 | inactive | inactive | 0 | 567.2 | inactive | 27.4 | 14.1 | 12 | 11.1 | inactive | 552 | 10.7 | 25.2 | 2.3 | 2.6 | 24.9 | 20.6 | 8.5 | –
CC(C)=CCc1cc(-c2coc3cc(O)c(CC=C(C)C)c(O)c3c2=O)ccc1O [LUPALBIGENIN] | 9.5 | 62.7 | inactive | inactive | 0 | 612 | inactive | 32.2 | 12.9 | 26.4 | 9.7 | inactive | 587 | 11.4 | 18.8 | 9.1 | 22.4 | 32.8 | 0 | 7.7 | –
CC(C)=CCc1c2c(c3occ(-c4ccc(O)cc4)c(=O)c3c1O)C=CC(C)(C)O2 [OSAJIN] | 10 | 18 | 3.54 microg/cm2 | inactive | 98.2 | 584.8 | 3.18 microg/cm2 | 45.6 | 15.5 | 47.8 | 11.2 | inactive | 504.8 | 13.8 | 33.4 | 15.7 | 100 | 2.9 | 12.2 | 10.4 | –
COc1ccc(-c2c(O)c3c(OC)c(CC=C(C)C)c4c(c3oc2=O)C=CC(C)(C)O4)cc1 [SCANDENIN A] | 0 | 71.5 | inactive | inactive | 0 | 601.2 | inactive | 32.8 | 10.5 | 19.8 | 11.1 | inactive | 605 | 10.5 | 15.2 | 6.6 | 4 | 31.5 | 11.6 | 9.3 | –
COc1c(CC=C(C)C)c2c(c3oc(=O)c(-c4ccc(O)cc4)c(O)c13)C=CC(C)(C)O2 [SCANDENIN] | 0 | 75.3 | 5.28 microg/cm2 | inactive | 86.4 | 550.8 | 3.85 microg/cm2 | 24.8 | 11.3 | 13.5 | 10.8 | inactive | 514.2 | 11.2 | 42.6 | 10.9 | 96.5 | 18.6 | 0 | 8.2 | –
COc1c(CC=C(C)C)c2c(c3occ(-c4ccc(O)cc4)c(=O)c13)C=CC(C)(C)O2 [SCANDINONE] | 3.5 | 65.3 | inactive | inactive | 14.6 | 621.8 | inactive | 23.4 | 12.5 | 13.6 | 10.5 | inactive | 592 | 11.8 | 17 | 5.4 | 1.3 | 34.2 | 6.8 | 8.2 | –
C[C@@H]1O[C@@H](OC[C@H]2O[C@@H](Oc3cc(O)c4c(=O)c(-c5ccc(O)cc5)coc4c3)[C@H](O)[C@@H](O)[C@@H]2O)[C@H](O)[C@H](O)[C@H]1O [SPHAEROBIOSIDE] | 0 | 32.7 | 3.87 microg/cm2 | inactive | 97.8 | 508.6 | 3.37 microg/cm2 | 41.2 | 14.4 | 36 | 11.3 | inactive | 504.8 | 13.3 | 31.8 | 9.5 | 96.2 | 7.5 | 13 | 10.8 | –
CC(C)=CCc1c2c(c(O)c3c(=O)c(-c4ccc(O)cc4)coc13)C=CC(C)(C)O2 [WARANGALONE] | 5.5 | 63.6 | inactive | inactive | 6.8 | 633.2 | inactive | 27.6 | 11.9 | 17.8 | 9.8 | inactive | 572.6 | 11.7 | 0 | 11.8 | 6.2 | 50.3 | 0 | 9.4 | –
